Read-outs that look alike come from different tables or passages of the source.
Target: full length NS3/4a (Hepatitis C virus genotype 1b (isolate BK) (HCV), UniProt P26663)
Assay: NS3 Protease Assay (Example A), FRET-based
Assay type: biochemical
Method in brief: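 Full-length NS3/4a, made in-house, with an NS4A/B-derived peptide substrate carrying QXL520 quencher and 5-FAMsp fluorophore. Buffer 50 mM Tris pH8, 20 mM DTT, 1% CHAPS, 10% glycerol, 5% DMSO. Fluorescence followed 30 min at room temperature; IC50 from initial rates of replicate curves.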

[1] = HCV NS3 protease assay, full length NS3/4a, read-out: Assay A IC50 (μM) average
[2] = stated as IC50 less than 30 μM or at least 40% inhibition at a concentration of 100 μM, read-out: IC50 against the protease activity of the full length NS3/4a
[3] = read-out: IC50 against the protease activity of the full length NS3/4a

Sequence of full length NS3/4a (P26663 1027-1657): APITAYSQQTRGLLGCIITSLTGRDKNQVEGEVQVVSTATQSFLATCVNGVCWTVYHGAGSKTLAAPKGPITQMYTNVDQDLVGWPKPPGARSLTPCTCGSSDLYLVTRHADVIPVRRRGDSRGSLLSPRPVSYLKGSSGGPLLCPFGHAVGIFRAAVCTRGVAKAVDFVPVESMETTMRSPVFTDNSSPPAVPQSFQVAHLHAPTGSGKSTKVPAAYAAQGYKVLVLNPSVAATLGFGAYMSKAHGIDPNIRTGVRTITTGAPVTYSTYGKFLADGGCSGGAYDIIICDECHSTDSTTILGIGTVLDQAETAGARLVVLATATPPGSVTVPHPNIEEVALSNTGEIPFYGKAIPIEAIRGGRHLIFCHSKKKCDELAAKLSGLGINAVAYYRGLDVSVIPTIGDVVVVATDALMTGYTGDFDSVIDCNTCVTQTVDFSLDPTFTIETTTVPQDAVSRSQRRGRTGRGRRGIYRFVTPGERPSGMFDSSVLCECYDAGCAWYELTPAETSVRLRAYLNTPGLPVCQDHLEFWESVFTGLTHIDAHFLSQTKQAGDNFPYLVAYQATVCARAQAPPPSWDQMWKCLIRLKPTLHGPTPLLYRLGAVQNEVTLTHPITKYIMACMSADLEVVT

`C[C@H](CC(N)=O)N[C@@H](c1ccc(Cl)c(C(=O)c2ccc(N)c(C#N)c2)c1F)C1CC1` [Example 190, (3R)-3-{[(R)-{3-[(4-amino-3-cyanophenyl)carbonyl]-4-chloro-2-fluorophenyl}(cyclopropyl)methyl]amino}butanamide] was tested. Which IC50 [1] did it give?
Its IC50 is 0.37 µM.

What about the IC50 [2] of the same compound?
The IC50 was under 30 µM.

With `CC[C@@H](N)c1ccc(OC)c(C(=O)c2ccc(F)cc2)c1F` [Example 191, (1R)-1-{2-fluoro-3-[(4-fluorophenyl)carbonyl]-4-methoxyphenyl}-propan-1-amine] as the compound, how does the IC50 [1] read?
The IC50 was 1.1 µM.

And the IC50 [3]?
The IC50 was 1 to 5 µM.

Which IC50 [1] does the source give for `CC[C@@H](N[C@@H](C)CC(N)=O)c1ccc(Cl)c(C(=O)c2cnc(NC)cn2)c1F` [Example 192, (3S)-3-{[(1R)-1-(4-chloro-2-fluoro-3-{[5-(methylamino)-pyrazin-2-yl]carbonyl}-phenyl)propyl]-amino}butanamide] here?
Its IC50 is 0.63 µM.

What about the IC50 [3] of the same compound?
Its IC50 is under 1 µM.

For `C[C@@H](CC(N)=O)N[C@@H](c1ccc(Cl)c(C(=O)c2cnc(N)cn2)c1F)C1CC1` [Example 194, (3S)-3-{[(R)-{3-[(5-aminopyrazin-2-yl)carbonyl]-4-chloro-2-fluorophenyl}(cyclo-propyl)methyl]amino}-butanamide], which inhibition at 0.3 µM (@ 0.3 uM) is on record?
Its inhibition at 0.3 µM is 28%.

With `C[C@H](CC(N)=O)N[C@@H](c1ccc(Cl)c(C(=O)c2cnc(N)cn2)c1F)C1CC1` [Example 195, (3R)-3-{[(R)-{3-[(5-aminopyrazin-2-yl)carbonyl]-4-chloro-2-fluorophenyl}(cyclo-propyl)methyl]amino}-butanamide] as the compound, how does the IC50 [1] read?
Its IC50 is 6.2 µM.

And the IC50 [2]?
The IC50 was under 30 µM.

With `COc1ccc([C@H](N)C2CC2)c(F)c1C(=O)c1ccc(F)cc1` [Example 196, (R)-cyclopropyl({2-fluoro-3-[(4-fluorophenyl)carbonyl]-4-methoxyphenyl})methanamine] as the compound, how does the IC50 [1] read?
Its IC50 is 2.3 µM.

And the IC50 [3]?
Its IC50 is 1 to 5 µM.

Which results are given for `CC[C@@H](N)c1ccc(Cl)c(C(=O)c2ccc(N)nn2)c1F` [Example 197, 6-({3-[(1R)-1-Aminopropyl]-6-chloro-2-fluorophenyl}carbonyl)pyridazin-3-amine]?
inhibition at 10 µM: 45%; IC50 [2]: < 30 µM

Which results are given for `CC[C@@H](N)c1ccc(OC)c(C(=O)c2cccc(F)c2)c1F` [Example 198, (1R)-1-{2-fluoro-3-[(3-fluorophenyl)carbonyl]-4-methoxyphenyl}propan-1-amine]?
IC50 [1]: 2.4 µM; IC50 [3]: 1 to 5 µM

For `CC[C@@H](N[C@H](C)CC(N)=O)c1ccc(OC)c(C(=O)c2ccc(F)cc2)c1F` [Example 199, (3R)-3-{[(1R)-1-{2-fluoro-3-[(4-fluorophenyl)carbonyl]-4-methoxyphenyl}propyl]amino}butanamide], which inhibition at 100 µM (@ 100 uM) is on record?
The inhibition at 100 µM was 32%.

`CC[C@@H](N[C@@H](C)CC(N)=O)c1ccc(OC)c(C(=O)c2ccc(F)cc2)c1F` [Example 200, (3S)-3-{[(1R)-1-{2-fluoro-3-[(4-fluorophenyl)carbonyl]-4-methoxyphenyl}propyl]amino} butanamide] was tested. Which IC50 [1] did it give?
The IC50 was 0.078 µM.

And the IC50 [3]?
The IC50 was under 1 µM.

Which IC50 [1] does the source give for `COc1ccc([C@H](N)C2CC2)c(F)c1C(=O)c1cccc(F)c1` [Example 201, (R)-cyclopropyl({2-fluoro-3-[(3-fluorophenyl)carbonyl]-4-methoxyphenyl})methanamine] here?
Its IC50 is 3 µM.

And the IC50 [3]?
Its IC50 is 1 to 5 µM.

How did the IC50 [1] turn out when `C[C@H](CC(N)=O)N[C@@H](c1ccc(Cl)c(C(=O)c2ccc(N)c(Cl)c2)c1F)C1CC1` [Example 202, (3R)-3-{[(R)-{3-[(4-amino-3-chlorophenyl)carbonyl]-4-chloro-2-fluorophenyl}(cyclopropyl)methyl]amino}butanamide] was run?
Its IC50 is 0.31 µM.

`Cc1cc(C(=O)c2c(Cl)ccc([C@H](N[C@H](C)CC(N)=O)C3CC3)c2F)ccc1N` [Example 203, (3R)-3-{[(R)-{3-[(4-amino-3-methylphenyl)carbonyl]-4-chloro-2-fluorophenyl}(cyclopropyl)methyl]amino}butanamide] was tested. Which IC50 [1] did it give?
Its IC50 is 0.27 µM.

How did the IC50 [1] turn out when `CC[C@@H](N)c1ccc(Cl)c(C(=O)c2cccc(O)c2)c1F` [Example 204, 3-({3-[(1R)-1-aminopropyl]-6-chloro-2-fluorophenyl}-carbonyl)phenol] was run?
Its IC50 is 0.17 µM.

`CC[C@@H](N[C@@H](C)CC(N)=O)c1ccc(Cl)c(C(=O)c2ccnc(N)c2)c1F` [Example 205, (3S)-3-{[(1R)-1-{3-[(2-aminopyridin-4-yl)carbonyl]-4-chloro-2-fluorophenyl}propyl]amino} butanamide] was tested. Which IC50 [1] did it give?
Its IC50 is 0.19 µM.

`CC[C@@H](N[C@H](C)CC(N)=O)c1ccc(Cl)c(C(=O)c2ccnc(N)c2)c1F` [Example 206, (3R)-3-{[(1R)-1-{3-[(2-aminopyridin-4-yl)carbonyl]-4-chloro-2-fluorophenyl}propyl]amino}butanamide] was tested. Which IC50 [1] did it give?
The IC50 was 1.2 µM.

And the IC50 [3]?
The IC50 was 1 to 5 µM.

How did the IC50 [1] turn out when `CC[C@@H](N[C@@H](C)CC(N)=O)c1ccc(Cl)c(C(=O)c2ccc(NC)nc2)c1F` [Example 207, (3S)-3-{[(1R)-1-(4-chloro-2-fluoro-3-{[6-(methylamino)pyridin-3-yl]carbonyl}phenyl)propyl]amino}butanamide] was run?
Its IC50 is 0.37 µM.

And the IC50 [3]?
Its IC50 is under 1 µM.

Which IC50 [1] does the source give for `CC[C@@H](N[C@H](C)CC(N)=O)c1ccc(Cl)c(C(=O)c2ccc(NC)nc2)c1F` [Example 208, (3R)-3-{[(1R)-1-(4-chloro-2-fluoro-3-{[6-(methylamino)pyridin-3-yl]carbonyl}phenyl)propyl]amino}butanamide] here?
Its IC50 is 3.1 µM.

And the IC50 [3]?
Its IC50 is 1 to 5 µM.

For `COc1ccc([C@H](N[C@H](C)CC(N)=O)C2CC2)c(F)c1C(=O)c1ccc(F)cc1` [Example 209, (3R)-3-{[(R)-cyclopropyl({2-fluoro-3-[(4-fluorophenyl)carbonyl]-4-methoxyphenyl})methyl]amino}butanamide], which IC50 [1] is on record?
The IC50 was 2.7 µM.

And the IC50 [3]?
Its IC50 is 1 to 5 µM.

For `COc1ccc([C@H](N[C@@H](C)CC(N)=O)C2CC2)c(F)c1C(=O)c1ccc(F)cc1` [Example 210, (3S)-3-{[(R)-cyclopropyl({2-fluoro-3-[(4-fluorophenyl)carbonyl]-4-methoxyphenyl})methyl]amino} butanamide], which IC50 [1] is on record?
Its IC50 is 0.098 µM.

And the IC50 [3]?
Its IC50 is under 1 µM.

Which inhibition at 1 µM does the source give for `CC[C@@H](N[C@H](C)CC(N)=O)c1ccc(OC)c(C(=O)c2cccc(F)c2)c1F` [Example 211, (3R)-3-{[(1R)-1-{2-fluoro-3-[(3-fluorophenyl)carbonyl]-4-methoxyphenyl}propyl]amino}butanamide] here?
Its inhibition at 1 µM is 47%.

And the IC50 [3]?
Its IC50 is 1 to 5 µM.

With `CC[C@@H](N[C@@H](C)CC(N)=O)c1ccc(OC)c(C(=O)c2cccc(F)c2)c1F` [Example 212, (3S)-3-{[(1R)-1-{2-fluoro-3-[(3-fluorophenyl)carbonyl]-4-methoxyphenyl}propyl]amino}butanamide] as the compound, how does the IC50 [1] read?
The IC50 was 0.094 µM.

How did the IC50 [1] turn out when `CC[C@@H](N[C@@H](C)CC(N)=O)c1ccc(Cl)c(C(=O)c2ccc(N)c(C#N)c2)c1F` [Example 213, (3S)-3-{[(1R)-1-{3-[(4-amino-3-cyanophenyl)carbonyl]-4-chloro-2-fluorophenyl}propyl]amino} butanamide] was run?
The IC50 was 0.35 µM.

How did the inhibition at 10 µM turn out when `CC[C@@H](N)c1ccc(Cl)c(C(=O)c2ccc(Cl)nn2)c1F` [Example 214, (1R)-1-{4-chloro-3-[(6-chloropyridazin-3-yl)carbonyl]-2-fluorophenyl}propan-1-amine] was run?
The inhibition at 10 µM was 51%.

What about the IC50 [2] of the same compound?
The IC50 was under 30 µM.

What does the source list for `CC[C@@H](N[C@@H](C)CC(N)=O)c1ccc(Cl)c(C(=O)c2ccc(OC)c(C#N)c2)c1F` [Example 215, (3S)-3-{[(1R)-1-{4-chloro-3-[(3-cyano-4-methoxyphenyl)carbonyl]-2-fluorophenyl}propyl]amino} butanamide]?
IC50 [1]: 1.2 µM; IC50 [3]: 1 to 5 µM

Which results are given for `CC[C@@H](N[C@H](C)CC(N)=O)c1ccc(Cl)c(C(=O)c2ccc(N)c(C#N)c2)c1F` [Example 216, (3R)-3-{[(1R)-1-{3-[(4-amino-3-cyanophenyl)carbonyl]-4-chloro-2-fluorophenyl}propyl]amino} butanamide]?
IC50 [1]: 0.48 µM; IC50 [3]: < 1 µM

With `CC[C@@H](N[C@H](C)CC(N)=O)c1ccc(Cl)c(C(=O)c2ccc(OC)c(C#N)c2)c1F` [Example 217, (3R)-3-{[(1R)-1-{4-chloro-3-[(3-cyano-4-methoxyphenyl)carbonyl]-2-fluorophenyl}propyl]amino}butanamide] as the compound, how does the inhibition at 30 µM (@ 30 uM) read?
Its inhibition at 30 µM is 38%.

`CC[C@@H](N[C@@H](CC(N)=O)C(C)C)c1ccc(Cl)c(C(=O)c2ccc(N)nc2)c1F` [Example 218, (3S)-3-{[(1R)-1-{3-[(6-aminopyridin-3-yl)carbonyl]-4-chloro-2-fluorophenyl}propyl]amino}-4-methylpentanamide] was tested. Which inhibition at 1 µM did it give?
The inhibition at 1 µM was 42%.

And the IC50 [3]?
Its IC50 is 1 to 5 µM.

Which results are given for `CC[C@@H](N[C@H](CC(N)=O)C(C)C)c1ccc(Cl)c(C(=O)c2ccc(N)nc2)c1F` [Example 219, (3R)-3-{[(1R)-1-{3-[(6-aminopyridin-3-yl)carbonyI]-4-chloro-2-fluorophenyl}propyl]amino}-4-methylpentanamide]?
IC50 [1]: 7.5 µM; IC50 [2]: < 30 µM

For `[2H]C([2H])([2H])C([2H])([2H])[C@@H](N[C@H](C)CC(N)=O)c1ccc(Cl)c(C(=O)c2ccc(N)c(Cl)c2)c1F` [Example 220, (3R)-3-{[(1R)-1-{3-[(4-amino-3-chlorophenyl)carbonyl]-4-chloro-2-fluorophenyl}(2,2,3,3,3-deutero)propyl]amino} butanamide], which IC50 [1] is on record?
The IC50 was 0.26 µM.

`[2H]C([2H])([2H])C([2H])([2H])[C@@H](N[C@H](C)CC(N)=O)c1ccc(Cl)c(C(=O)c2ccc(N)c(C)c2)c1F` [Example 221, (3R)-3-{[(1R)-1-{3-[(4-amino-3-methylphenyl)carbonyl]-4-chloro-2-fluorophenyl}(2,2,3,3,3-deutero)propyl]amino} butanamide] was tested. Which IC50 [1] did it give?
The IC50 was 0.36 µM.

Which inhibition at 0.03 µM (@ 0.03 uM) does the source give for `CC[C@@H](N)c1ccc(Cl)c(C(=O)c2ccc(C#N)c(OC)c2)c1F` [Example 222, 4-({3-[(1R)-1-aminopropyl]-6-chloro-2-fluorophenyl}carbonyl)-2-methoxybenzonitrile] here?
The inhibition at 0.03 µM was 45%.

What about the IC50 [2] of the same compound?
The IC50 was under 30 µM.
